Test results from the NIST ThermoML archive (doi:10.1021/je0302001).

Assay: mn = molality of the nth substance listed, in mol/kg
Conditions: for speed of sound / mass density / viscosity: 101.3 kPa, Liquid; for surface tension liquid-gas: Ring tensiometer; for viscosity: Capillary tube (Ostwald / Ubbelohde) method

O=[N+]([O-])[O-].O=[N+]([O-])[O-].[Zn+2] [nitric acid, zinc salt] + O
Conditions	mass density [kg/m3]	speed of sound [m/s]	surface tension liquid-gas [mN/m]	viscosity [mPa·s]
298.15 K, m1 = 4.817	–	1748.7	–	–
298.15 K, m1 = 5.224	–	1755.5	–	–
298.15 K, m1 = 5.797	–	1769.4	–	–
298.15 K, m1 = 6.34	–	1777.8	–	–
298.15 K, m1 = 6.89	–	1783	–	–
298.45 K, m1 = 0.0875	1009.7	–	–	–
298.45 K, m1 = 5.224	1589.9	–	–	–
298.65 K, m1 = 0.6405	1090.9	–	–	–
298.75 K, m1 = 1.113	1156.5	–	–	–
298.75 K, m1 = 2.91	1373.5	–	–	–
298.85 K, m1 = 2.145	1286.9	–	–	–
298.95 K, m1 = 1.258	1175.8	–	–	–
299.05 K, m1 = 7.349	1738.2	–	–	–
299.2 K, m1 = 1.906	1258	–	–	–
299.6 K, m1 = 5.8	1633.1	–	–	–
299.7 K, m1 = 0.2466	1033.3	–	–	–
299.7 K, m1 = 1.551	1213.3	–	–	–
299.7 K, m1 = 6.89	1708.8	–	–	–
299.75 K, m1 = 2.29	1303.4	–	–	–
300.05 K, m1 = 2.292	1303.4	–	–	–
300.05 K, m1 = 3.472	1431.1	–	–	–
300.05 K, m1 = 6.34	1671.6	–	–	–
300.2 K, m1 = 2.344	1309.4	–	–	–
300.35 K, m1 = 5.224	1588.3	–	–	–
300.55 K, m1 = 0.3388	1046.5	–	–	–
300.8 K, m1 = 0.6111	1085.9	–	–	–
300.8 K, m1 = 2.91	1372.1	–	–	–
301 K, m1 = 2.145	1285.5	–	–	–
301.25 K, m1 = 1.113	1155.2	–	–	–
301.35 K, m1 = 5.8	1631.5	–	–	–
301.35 K, m1 = 6.89	1707.1	–	–	–
301.4 K, m1 = 0.1329	1015.6	–	–	–
301.4 K, m1 = 1.906	1256.6	–	–	–
301.5 K, m1 = 1.258	1174.5	–	–	–
301.55 K, m1 = 0.6405	1089.7	–	–	–
301.85 K, m1 = 2.29	1302	–	–	–
301.85 K, m1 = 4.075	1488	–	–	–
301.85 K, m1 = 6.34	1669.9	–	–	–
302 K, m1 = 1.551	1212	–	–	–
302.1 K, m1 = 3.472	1429.5	–	–	–
302.1 K, m1 = 4.817	1553.4	–	–	–
302.2 K, m1 = 2.292	1302	–	–	–
302.25 K, m1 = 2.344	1308.1	–	–	–
302.25 K, m1 = 5.224	1586.5	–	–	–
302.35 K, m1 = 0.0875	1008.6	–	–	–
302.5 K, m1 = 7.349	1734.5	–	–	–
302.9 K, m1 = 2.91	1370.6	–	–	–
303.15 K, m1 = 0.0875	–	1514.4	–	–
303.15 K, m1 = 0.1329	–	1513	–	0.841
303.15 K, m1 = 0.2263	–	–	71.91	–
303.15 K, m1 = 0.2466	1032.1	1518.2	–	0.87
303.15 K, m1 = 0.334	–	–	71.94	–
303.15 K, m1 = 0.3388	–	1520.9	–	0.896
303.15 K, m1 = 0.6111	–	1535.9	–	0.976
303.15 K, m1 = 0.6198	–	–	72.68	–
303.15 K, m1 = 0.6405	–	1536.9	–	0.984
303.15 K, m1 = 0.8228	–	–	73.52	–
303.15 K, m1 = 1.113	–	1561.1	–	1.15
303.15 K, m1 = 1.258	–	1571.6	–	1.221
303.15 K, m1 = 1.259	–	–	74.63	–
303.15 K, m1 = 1.549	–	–	75.19	–
303.15 K, m1 = 1.551	–	1589.3	–	1.34
303.15 K, m1 = 1.818	–	–	75.65	–
303.15 K, m1 = 1.906	–	1610.2	–	1.549
303.15 K, m1 = 2.145	1284.1	–	–	1.711
303.15 K, m1 = 2.222	–	–	76.95	–
303.15 K, m1 = 2.29	–	–	–	1.797
303.15 K, m1 = 2.344	–	–	–	1.819
303.15 K, m1 = 2.526	–	–	77.93	–
303.15 K, m1 = 2.721	–	–	78.39	–
303.15 K, m1 = 2.91	–	–	–	2.259
303.15 K, m1 = 3.426	–	–	80.38	–
303.15 K, m1 = 3.472	–	–	–	2.839
303.15 K, m1 = 4.011	–	–	81.68	–
303.15 K, m1 = 4.075	–	–	–	3.581
303.15 K, m1 = 4.231	–	–	82.16	–
303.15 K, m1 = 4.817	–	–	–	4.795
303.15 K, m1 = 5.133	–	–	84.17	–
303.15 K, m1 = 5.224	–	–	–	5.544
303.15 K, m1 = 5.797	–	–	–	7.1
303.15 K, m1 = 6.245	–	–	85.54	–
303.15 K, m1 = 6.34	–	–	–	8.647
303.15 K, m1 = 6.89	–	–	–	10.85
303.15 K, m1 = 7.349	–	–	–	12.93
